Source: publication PMC5451150 (Journal of Medicinal Chemistry, 2016)

Assays:
[1] = Intrinsic clearance in mouse liver microsomes; format: in vitro ADME
[2] = Plasma protein binding, mouse; format: in vitro ADME
[3] = Plasma protein binding, rat; format: in vitro ADME
[4] = Plasma protein binding, dog; format: in vitro ADME
[5] = Plasma protein binding, human; format: in vitro ADME
[6] = Rat pharmacokinetics (iv and po); format: in vivo; conditions: po 25 mg/kg, male Sprague–Dawley rats
[7] = Dog pharmacokinetics (iv and po); format: in vivo; conditions: po 5 mg/kg, male beagle dogs
EZH2 C663S = biological target: T1, EZH2 C663S (Homo sapiens, UniProt O75530+Q15910, C663S); assay: EZH2 C663S incorporated into reconstituted PRC2, potency; format: biochemical; conditions: single substitution cysteine to serine at position 663, reconstituted PRC2
T1 construct: made in house

[8] = test system: cytochrome P450 enzymes 1A2, 2C9, 2C8, 2D6, and 3A4; assay: Time-dependent inhibition (TDI) of cytochrome P450 enzymes; format: in vitro ADME
[9] = test system: panel of fifty-four physiologically relevant receptors, transporters, and ion channels; assay: Secondary pharmacology panel; conditions: at 10 μM; fifty-four targets
DNMT1 = DNMT1 (Homo sapiens, UniProt P26358); assay: Methyltransferase selectivity panel: DNMT1; format: biochemical; conditions: substrate Poly dl-dC; top concentration 10 µM
DNMT1, sequence (P26358 whole entry, species assumed): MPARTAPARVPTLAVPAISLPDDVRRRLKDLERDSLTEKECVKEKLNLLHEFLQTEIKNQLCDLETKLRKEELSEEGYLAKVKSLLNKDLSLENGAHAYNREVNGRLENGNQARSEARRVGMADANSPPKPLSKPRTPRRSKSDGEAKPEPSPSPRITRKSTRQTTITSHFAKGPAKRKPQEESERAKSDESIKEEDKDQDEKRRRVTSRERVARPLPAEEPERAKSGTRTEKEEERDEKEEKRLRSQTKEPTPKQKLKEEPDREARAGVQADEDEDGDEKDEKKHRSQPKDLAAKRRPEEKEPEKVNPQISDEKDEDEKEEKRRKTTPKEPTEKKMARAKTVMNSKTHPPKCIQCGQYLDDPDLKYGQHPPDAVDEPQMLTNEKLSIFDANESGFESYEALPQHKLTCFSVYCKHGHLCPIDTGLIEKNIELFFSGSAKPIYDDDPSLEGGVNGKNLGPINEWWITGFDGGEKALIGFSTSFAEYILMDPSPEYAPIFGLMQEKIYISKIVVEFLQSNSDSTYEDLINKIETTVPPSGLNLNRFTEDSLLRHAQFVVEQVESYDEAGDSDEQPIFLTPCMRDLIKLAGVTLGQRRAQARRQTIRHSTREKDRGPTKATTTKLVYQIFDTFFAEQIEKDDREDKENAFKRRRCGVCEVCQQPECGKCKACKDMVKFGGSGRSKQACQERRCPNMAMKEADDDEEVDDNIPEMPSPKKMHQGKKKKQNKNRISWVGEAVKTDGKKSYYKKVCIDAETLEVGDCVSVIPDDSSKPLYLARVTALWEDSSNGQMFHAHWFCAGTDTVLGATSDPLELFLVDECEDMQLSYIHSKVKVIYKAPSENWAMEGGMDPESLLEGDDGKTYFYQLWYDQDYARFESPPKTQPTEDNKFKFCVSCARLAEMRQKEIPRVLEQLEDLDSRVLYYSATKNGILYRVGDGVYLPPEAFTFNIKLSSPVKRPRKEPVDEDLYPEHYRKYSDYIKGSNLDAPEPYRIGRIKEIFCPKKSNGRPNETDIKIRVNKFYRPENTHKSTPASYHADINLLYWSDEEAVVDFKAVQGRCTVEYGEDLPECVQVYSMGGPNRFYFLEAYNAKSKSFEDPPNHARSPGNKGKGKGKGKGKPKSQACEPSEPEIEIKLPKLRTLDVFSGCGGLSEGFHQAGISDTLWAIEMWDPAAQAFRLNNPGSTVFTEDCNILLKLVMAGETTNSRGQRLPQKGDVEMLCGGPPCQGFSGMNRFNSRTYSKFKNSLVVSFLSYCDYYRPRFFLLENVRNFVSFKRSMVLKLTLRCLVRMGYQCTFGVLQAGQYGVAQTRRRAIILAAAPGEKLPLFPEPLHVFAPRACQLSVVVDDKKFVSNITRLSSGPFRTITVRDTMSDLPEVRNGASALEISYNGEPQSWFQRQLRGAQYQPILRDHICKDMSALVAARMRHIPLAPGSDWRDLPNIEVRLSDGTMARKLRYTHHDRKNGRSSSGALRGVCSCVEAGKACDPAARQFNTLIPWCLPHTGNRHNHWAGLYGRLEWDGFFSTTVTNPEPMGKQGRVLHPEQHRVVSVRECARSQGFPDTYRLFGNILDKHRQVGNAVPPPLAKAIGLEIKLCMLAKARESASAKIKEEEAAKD

DNMT3a = DNMT3a (Homo sapiens, UniProt Q9Y6K1); assay: Methyltransferase selectivity panel: DNMT3a; format: biochemical; conditions: substrate Lambda DNA; top concentration 10 µM
DNMT3a, sequence (Q9Y6K1 whole entry, looked up, species assumed): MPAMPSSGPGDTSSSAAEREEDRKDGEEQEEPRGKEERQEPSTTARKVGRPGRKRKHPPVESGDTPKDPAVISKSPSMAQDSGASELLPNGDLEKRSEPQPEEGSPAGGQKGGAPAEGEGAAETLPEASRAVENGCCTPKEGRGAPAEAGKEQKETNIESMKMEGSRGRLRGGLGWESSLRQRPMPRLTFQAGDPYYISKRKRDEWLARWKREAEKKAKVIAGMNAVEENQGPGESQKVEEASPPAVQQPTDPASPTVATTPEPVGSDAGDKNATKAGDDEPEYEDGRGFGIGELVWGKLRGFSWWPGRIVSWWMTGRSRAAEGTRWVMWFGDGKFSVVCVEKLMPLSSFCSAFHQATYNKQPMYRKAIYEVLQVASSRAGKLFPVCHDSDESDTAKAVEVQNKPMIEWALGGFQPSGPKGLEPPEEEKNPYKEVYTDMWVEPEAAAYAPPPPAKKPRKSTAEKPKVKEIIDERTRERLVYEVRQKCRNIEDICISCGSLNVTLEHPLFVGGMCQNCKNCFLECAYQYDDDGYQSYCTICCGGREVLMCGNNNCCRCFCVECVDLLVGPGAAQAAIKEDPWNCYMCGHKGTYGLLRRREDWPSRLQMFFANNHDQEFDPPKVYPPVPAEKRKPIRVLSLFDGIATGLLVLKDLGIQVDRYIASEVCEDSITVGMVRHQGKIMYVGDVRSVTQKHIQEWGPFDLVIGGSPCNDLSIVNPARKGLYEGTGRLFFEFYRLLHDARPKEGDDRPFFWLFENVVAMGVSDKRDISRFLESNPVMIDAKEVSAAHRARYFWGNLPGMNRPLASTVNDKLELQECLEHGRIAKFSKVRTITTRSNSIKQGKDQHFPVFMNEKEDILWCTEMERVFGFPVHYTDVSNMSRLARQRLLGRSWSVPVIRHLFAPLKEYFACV

DNMT3b = DNMT3b (Homo sapiens, UniProt Q9UBC3); assay: Methyltransferase selectivity panel: DNMT3b; format: biochemical; conditions: substrate Lambda DNA; top concentration 10 µM
DOT1L = DOT1L (Homo sapiens, UniProt Q8TEK3); assay: Methyltransferase selectivity panel: DOT1L; format: biochemical; conditions: substrate Nucleosomes; top concentration 10 µM
G9a = G9a (Homo sapiens, UniProt Q96KQ7); assay: Methyltransferase selectivity panel: G9a; format: biochemical; conditions: substrate Histone H3 (1-21); top concentration 10 µM
GLP = GLP (Homo sapiens, UniProt Q9H9B1); assay: Methyltransferase selectivity panel: GLP; format: biochemical; conditions: substrate Histone H3 (1-21); top concentration 10 µM
MLL1 = MLL1 (Homo sapiens, UniProt Q03164); assay: Methyltransferase selectivity panel: MLL1; format: biochemical; conditions: substrate Nucleosomes; top concentration 10 µM
MLL2 = MLL2 (Homo sapiens, UniProt O14686); assay: Methyltransferase selectivity panel: MLL2; format: biochemical; conditions: substrate Core Histone; top concentration 10 µM
MLL3 = MLL3 (Homo sapiens, UniProt Q8NEZ4); assay: Methyltransferase selectivity panel: MLL3; format: biochemical; conditions: substrate Core Histone; top concentration 10 µM
MLL4 = assay: Methyltransferase selectivity panel: MLL4; format: biochemical; conditions: substrate Core Histone; top concentration 10 µM
NSD1 = NSD1 (Homo sapiens, UniProt Q96L73); assay: Methyltransferase selectivity panel: NSD1; format: biochemical; conditions: substrate Nucleosomes; top concentration 10 µM
NSD2 = NSD2 (Homo sapiens, UniProt O96028); assay: Methyltransferase selectivity panel: NSD2; format: biochemical; conditions: substrate Nucleosomes; top concentration 10 µM
NSD2, sequence (O96028 whole entry): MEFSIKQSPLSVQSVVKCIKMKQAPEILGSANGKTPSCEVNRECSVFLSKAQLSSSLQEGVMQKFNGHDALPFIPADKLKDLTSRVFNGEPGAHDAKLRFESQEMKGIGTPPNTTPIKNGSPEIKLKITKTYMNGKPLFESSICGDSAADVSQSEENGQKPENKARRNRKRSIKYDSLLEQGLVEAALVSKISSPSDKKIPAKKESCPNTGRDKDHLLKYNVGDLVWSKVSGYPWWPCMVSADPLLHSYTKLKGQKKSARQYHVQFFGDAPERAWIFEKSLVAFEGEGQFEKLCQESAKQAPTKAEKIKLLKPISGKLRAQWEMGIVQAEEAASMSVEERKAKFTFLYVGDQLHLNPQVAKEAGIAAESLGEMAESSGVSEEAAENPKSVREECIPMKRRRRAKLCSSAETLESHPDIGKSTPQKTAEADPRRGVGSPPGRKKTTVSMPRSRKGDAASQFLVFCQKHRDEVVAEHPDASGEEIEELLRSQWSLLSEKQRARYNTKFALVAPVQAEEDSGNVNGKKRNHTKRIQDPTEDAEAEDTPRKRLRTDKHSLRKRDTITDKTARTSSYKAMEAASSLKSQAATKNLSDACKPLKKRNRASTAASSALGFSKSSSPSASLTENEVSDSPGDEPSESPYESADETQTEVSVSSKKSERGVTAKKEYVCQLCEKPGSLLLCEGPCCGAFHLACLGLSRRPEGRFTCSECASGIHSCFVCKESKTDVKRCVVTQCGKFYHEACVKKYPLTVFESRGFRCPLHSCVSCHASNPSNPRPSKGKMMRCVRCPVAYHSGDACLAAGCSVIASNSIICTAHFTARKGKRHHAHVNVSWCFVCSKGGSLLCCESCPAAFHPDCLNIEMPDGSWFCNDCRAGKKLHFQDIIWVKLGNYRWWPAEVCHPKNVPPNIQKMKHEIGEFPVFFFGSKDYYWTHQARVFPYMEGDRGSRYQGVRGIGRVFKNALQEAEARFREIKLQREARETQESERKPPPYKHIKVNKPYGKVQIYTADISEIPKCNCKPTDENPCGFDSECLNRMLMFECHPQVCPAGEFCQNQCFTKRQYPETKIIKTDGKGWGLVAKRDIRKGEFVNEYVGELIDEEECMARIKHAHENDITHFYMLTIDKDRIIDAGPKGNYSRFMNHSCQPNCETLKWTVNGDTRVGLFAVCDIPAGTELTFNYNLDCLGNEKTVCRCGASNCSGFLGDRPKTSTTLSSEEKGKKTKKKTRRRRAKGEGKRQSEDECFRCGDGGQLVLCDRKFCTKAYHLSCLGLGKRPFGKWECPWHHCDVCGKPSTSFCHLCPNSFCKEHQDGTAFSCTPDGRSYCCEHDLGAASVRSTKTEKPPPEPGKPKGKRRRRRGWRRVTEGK

NSD2 (E1099K) = NSD2 (E1099K) (Homo sapiens, UniProt O96028, E1099K); assay: Methyltransferase selectivity panel: NSD2 (E1099K); format: biochemical; conditions: substrate Nucleosomes; top concentration 10 µM
NSD2 (E1099K), sequence (O96028 whole entry E1099K): as the sequence (O96028 whole entry) above, with E1099K counted along it

PRDM9 = PRDM9 (Homo sapiens, UniProt Q9NQV7); assay: Methyltransferase selectivity panel: PRDM9; format: biochemical; conditions: substrate Histone H3; top concentration 10 µM
PRMT1 = PRMT1 (Homo sapiens, UniProt Q99873); assay: Methyltransferase selectivity panel: PRMT1; format: biochemical; conditions: substrate Histone H4; top concentration 10 µM
PRMT1, sequence (Q99873 whole entry): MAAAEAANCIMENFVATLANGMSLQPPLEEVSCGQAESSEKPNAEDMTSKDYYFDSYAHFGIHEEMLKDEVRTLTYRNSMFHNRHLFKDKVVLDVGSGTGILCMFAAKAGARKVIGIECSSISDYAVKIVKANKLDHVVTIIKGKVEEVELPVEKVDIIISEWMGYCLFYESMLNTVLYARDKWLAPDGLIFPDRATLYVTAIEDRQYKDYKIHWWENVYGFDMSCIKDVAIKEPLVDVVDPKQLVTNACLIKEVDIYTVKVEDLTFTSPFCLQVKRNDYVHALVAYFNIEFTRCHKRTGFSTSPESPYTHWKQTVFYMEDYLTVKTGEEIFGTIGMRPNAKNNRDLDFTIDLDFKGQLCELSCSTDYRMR

PRMT3 = PRMT3 (Homo sapiens, UniProt O60678); assay: Methyltransferase selectivity panel: PRMT3; format: biochemical; conditions: substrate Histone H4; top concentration 10 µM
PRMT4 = PRMT4 (Homo sapiens, UniProt Q86X55); assay: Methyltransferase selectivity panel: PRMT4; format: biochemical; conditions: substrate Histone H3; top concentration 10 µM
PRMT5 = PRMT5 (Homo sapiens, UniProt O14744); assay: Methyltransferase selectivity panel: PRMT5; format: biochemical; conditions: substrate Histone 2A; top concentration 10 µM
PRMT8 = PRMT8 (Homo sapiens, UniProt Q9NR22); assay: Methyltransferase selectivity panel: PRMT8; format: biochemical; conditions: substrate Histone H4; top concentration 10 µM
PRMT8, sequence (Q9NR22 whole entry): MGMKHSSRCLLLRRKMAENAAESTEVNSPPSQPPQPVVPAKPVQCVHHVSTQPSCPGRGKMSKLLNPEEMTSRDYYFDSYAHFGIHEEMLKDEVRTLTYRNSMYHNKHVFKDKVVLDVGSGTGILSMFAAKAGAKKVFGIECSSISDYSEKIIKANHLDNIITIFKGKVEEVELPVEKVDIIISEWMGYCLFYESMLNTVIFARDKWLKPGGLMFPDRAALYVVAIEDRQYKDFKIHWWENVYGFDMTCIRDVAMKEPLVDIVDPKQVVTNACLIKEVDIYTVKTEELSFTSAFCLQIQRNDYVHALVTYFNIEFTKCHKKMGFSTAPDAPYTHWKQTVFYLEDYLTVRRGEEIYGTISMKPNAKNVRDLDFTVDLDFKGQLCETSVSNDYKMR

SET1B = SET1B (Homo sapiens, UniProt Q9UPS6); assay: Methyltransferase selectivity panel: SET1B; format: biochemical; conditions: substrate Core Histone; top concentration 10 µM
SET8 = SET8 (Homo sapiens, UniProt Q9NQR1); assay: Methyltransferase selectivity panel: SET8; format: biochemical; conditions: substrate Nucleosomes; top concentration 10 µM
SETD2 = SETD2 (Homo sapiens, UniProt Q9BYW2); assay: Methyltransferase selectivity panel: SETD2; format: biochemical; conditions: substrate Histone H4; top concentration 10 µM
SMYD2 = SMYD2 (Homo sapiens, UniProt Q9NRG4); assay: Methyltransferase selectivity panel: SMYD2; format: biochemical; conditions: substrate Histone H4; top concentration 10 µM
SUV39H1 = SUV39H1 (Homo sapiens, UniProt O43463); assay: Methyltransferase selectivity panel: SUV39H1; format: biochemical; conditions: substrate Histone H3; top concentration 10 µM
SUV39H2 = SUV39H2 (Homo sapiens, UniProt Q9H5I1); assay: Methyltransferase selectivity panel: SUV39H2; format: biochemical; conditions: substrate Histone H3; top concentration 10 µM
SUV420H1TV2 = SUV420H1TV2 (Homo sapiens, UniProt Q4FZB7); assay: Methyltransferase selectivity panel: SUV420H1TV2; format: biochemical; conditions: substrate Nucleosomes; top concentration 10 µM
SUV420H1TV2, sequence (Q4FZB7 1-393 isoform Q4FZB7-2): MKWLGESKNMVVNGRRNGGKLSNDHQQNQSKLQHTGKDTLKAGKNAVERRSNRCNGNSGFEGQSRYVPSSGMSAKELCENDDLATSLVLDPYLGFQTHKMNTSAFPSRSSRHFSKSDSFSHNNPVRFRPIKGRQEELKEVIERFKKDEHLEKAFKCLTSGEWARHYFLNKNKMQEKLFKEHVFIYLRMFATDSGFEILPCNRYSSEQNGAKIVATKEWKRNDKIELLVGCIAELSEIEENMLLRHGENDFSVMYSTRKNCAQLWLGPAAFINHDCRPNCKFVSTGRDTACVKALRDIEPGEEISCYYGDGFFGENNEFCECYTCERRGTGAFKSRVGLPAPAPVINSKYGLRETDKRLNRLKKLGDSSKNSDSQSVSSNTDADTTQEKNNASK

PRMT6 = PRMT6 (Homo sapiens, UniProt Q96LA8); conditions: substrate Histone H3; top concentration 10 µM
[10] = test system: KARPAS-422 B-cell lymphoma xenograft; assay: KARPAS-422 B-cell lymphoma xenograft efficacy and PK/PD in CB-17 SCID mice; conditions: for antitumor efficacy (in words): 160 mg/kg BID

For `COc1cc(C)[nH]c(=O)c1CNC(=O)c1c(C)n([C@H](C)C2CCN(CC(F)(F)F)CC2)c2ccccc12` [compound 13, (R)-N-((4-Methoxy-6-methyl-2-oxo-1,2-dihydropyridin-3-yl)methyl)-2-methyl-1-(1-(1-(2,2,2-trifluoroethyl)piperidin-4-yl)ethyl)-1H-indole-3-carboxamide], which Clint [1] is on record?
The Clint was 159 μL/min/mg protein.

And the microsomal CLint ([1]; mouse, liver microsomes)?
The microsomal CLint was over 100 µL/min/mg.

What about the PPB [2] of the same molecule?
The PPB was 97.9 % bound.

And the PPB [3]?
The PPB was 89.9 % bound.

What about the PPB ([4]; dog plasma) of the same molecule?
The PPB was 90.3 % bound.

What about the fraction unbound ([4]; plasma, in vitro, dog, read-out: fu (fraction unbound to plasma protein)) of the same molecule?
The fraction unbound was 0.089.

And the PPB [5]?
Its PPB is 92.8 % bound.

What about the “Cmax unbound (value in brackets)” value [6] of the same molecule?
The value was 593 nM.

And the “Cmax unbound (value in brackets)” value [7]?
The value was 120 nM.

What about the “potency in mutated EZH2 C663S (versus EZH2)” value (EZH2 C663S) of the same molecule?
The value was “decreased”.

What about the “time-dependent inhibition (TDI) of cytochrome P450 enzymes” value [8] of the same molecule?
Its value is “no time-dependent inhibition”.

And the “inhibition of any target of the panel” value [9]?
The value was at most 50%.

What about the “DNMT1 IC50” value (DNMT1) of the same molecule?
Its value is “no inhibition or compound activity that could not be fit to an IC50 curve”.

And the “DNMT3a IC50” value (DNMT3a)?
The value was “no inhibition or compound activity that could not be fit to an IC50 curve”.

What about the “DNMT3b IC50” value (DNMT3b) of the same molecule?
Its value is “no inhibition or compound activity that could not be fit to an IC50 curve”.

What about the “DOT1L IC50” value (DOT1L) of the same molecule?
The value was “no inhibition or compound activity that could not be fit to an IC50 curve”.

What about the “G9a IC50” value (G9a) of the same molecule?
The value was “no inhibition or compound activity that could not be fit to an IC50 curve”.

And the “GLP IC50” value (GLP)?
Its value is “no inhibition or compound activity that could not be fit to an IC50 curve”.

And the “MLL1 IC50” value (MLL1)?
Its value is “no inhibition or compound activity that could not be fit to an IC50 curve”.

And the “MLL2 IC50” value (MLL2)?
Its value is “no inhibition or compound activity that could not be fit to an IC50 curve”.

What about the “MLL3 IC50” value (MLL3) of the same molecule?
The value was “no inhibition or compound activity that could not be fit to an IC50 curve”.

And the “MLL4 IC50” value (MLL4)?
The value was “no inhibition or compound activity that could not be fit to an IC50 curve”.

What about the “NSD1 IC50” value (NSD1) of the same molecule?
Its value is “no inhibition or compound activity that could not be fit to an IC50 curve”.

And the “NSD2 IC50” value (NSD2)?
The value was “no inhibition or compound activity that could not be fit to an IC50 curve”.

And the “NSD2 (E1099K) IC50” value (NSD2 (E1099K))?
Its value is “no inhibition or compound activity that could not be fit to an IC50 curve”.

And the “PRDM9 IC50” value (PRDM9)?
The value was “no inhibition or compound activity that could not be fit to an IC50 curve”.

And the “PRMT1 IC50” value (PRMT1)?
The value was “no inhibition or compound activity that could not be fit to an IC50 curve”.

What about the “PRMT3 IC50” value (PRMT3) of the same molecule?
Its value is “no inhibition or compound activity that could not be fit to an IC50 curve”.

And the “PRMT4 IC50” value (PRMT4)?
The value was “no inhibition or compound activity that could not be fit to an IC50 curve”.

And the “PRMT5 IC50” value (PRMT5)?
The value was “no inhibition or compound activity that could not be fit to an IC50 curve”.

And the “PRMT8 IC50” value (PRMT8)?
The value was “no inhibition or compound activity that could not be fit to an IC50 curve”.

And the “SET1B IC50” value (SET1B)?
The value was “no inhibition or compound activity that could not be fit to an IC50 curve”.

What about the “SET8 IC50” value (SET8) of the same molecule?
The value was “no inhibition or compound activity that could not be fit to an IC50 curve”.

What about the “SETD2 IC50” value (SETD2) of the same molecule?
Its value is “no inhibition or compound activity that could not be fit to an IC50 curve”.

What about the “SMYD2 IC50” value (SMYD2) of the same molecule?
Its value is “no inhibition or compound activity that could not be fit to an IC50 curve”.

What about the “SUV39H1 IC50” value (SUV39H1) of the same molecule?
Its value is “no inhibition or compound activity that could not be fit to an IC50 curve”.

And the “SUV39H2 IC50” value (SUV39H2)?
The value was “no inhibition or compound activity that could not be fit to an IC50 curve”.

What about the “SUV420H1TV2 IC50” value (SUV420H1TV2) of the same molecule?
Its value is “no inhibition or compound activity that could not be fit to an IC50 curve”.

What about the “PRMT6 IC50” value (PRMT6) of the same molecule?
The value was “no inhibition or compound activity that could not be fit to an IC50 curve”.

And the “antitumor efficacy (in words)” value [10]?
Its value is “efficacious”.

What about the “antitumor efficacy (in words)” value ([10]; listed as CPI-1205) of the same molecule?
The value was “robust antitumor effects”.

What about the “time to observed tumor regression” value ([10]; 160 mg/kg po BID, female CB-17 SCID mice) of the same molecule?
Its value is at most 2 weeks.
